From patent publication US20240139214A1, “AGENT FOR SUPPRESSING IL-31 PRODUCTION AND PHARMACEUTICAL COMPOSITION CONTAINING THE SAME” (KYUSHU UNIVERSITY, NATIONAL UNIVERSITY CORPORATION, priority 2021, published 2024)
Read-outs that look alike come from different tables or passages of the source.

How the values were obtained:
mouse IL-31 gene = assay: IL-31 production inhibitory action: IL-31 gene expression by real-time PCR in antigen-stimulated CD4+ T cells from Dock8−/− AND Tg mice; type: cell-based; settings: for antigen-induced IL-31 gene expression (in words): 2.5 μM, FIG. 2A
CD4+ T cells = assay: T cell proliferation assay (PMA and ionomycin, 3H-thymidine incorporation); type: cell-based, mouse; settings: for effect on non-specific T cell proliferation induced by PMA and ionomycin: FIG. 4
Experimental: (§1) A T cell proliferation assay was performed by culturing CD4^+ T cells (5×10^4 cells) with T cell-depleted irradiated spleen cells (1×10^6 cells) in the presence of phorbol 12-myristate 13-acetate (PMA: 100 ng/ml; Sigma-Aldrich) and ionomycin (1 μg/ml; Sigma-Aldrich) for 66 hours. For the last 18 hours of culture, ^3H-thymidine (0.037 MBq) was added, and the incorporated radioactivity was measured with MicroBeta^2 (PerkinElmer, Inc., Waltham, MS).
as §1, with “hours. Test compounds were added at various final concentrations at the start of culture.” for “hours.”, “MS). […]” for “MS).”

IL-2 gene (Il2) = assay: IL-2 gene expression in CD4+ T cells from Dock8−/− AND Tg mice (real-time PCR); type: cell-based, mouse; settings: 2.5 μM; FIG. 2B
Experimental: (§2) Total RNA was isolated using ISOGEN (Nippon Gene Co., Ltd.). For amplification by PCR, RNA samples treated with RNase-free DNase I (Thermo Fisher Scientific) were reverse-transcribed with oligo(dT) primers (TFS) and SuperScript III reverse transcriptase (TFS). Real-time PCR was performed in a CFX Connect™ thermal cycler (BIO-RAD) using SYBR Green PCR Master Mix (Thermo Fisher Scientific). The expression of mouse and human target genes was normalized to expression of Hprt and PPIB genes, respectively. CFX Manager software (ver.3.1) supplied with the instrument was used for analysis.
(§3) CD4^+ T cells (3×10^5 cells) from Dock8^−/− AND Tg mice were cultured with T cell-depleted irradiated spleen cells (5×10^6 cells) containing a test compound (2.5 μM) or a vehicle alone (0.1% DMSO), in the presence of MCC88-103 (3 μg/ml) for 24 hours.

IL-4 gene (Il4) = assay: IL-4 gene expression in CD4+ T cells from Dock8−/− AND Tg mice (real-time PCR); type: cell-based, mouse; settings: 2.5 μM; FIG. 2B
Experimental: as §2, §3

[1] = Single-dose toxicity study, oral administration; type: in vivo; settings: 100-mg oral administration
Experimental: From these, it is determined that compound 1 is a highly safe compound with low cytotoxicity.

[2] = Blood concentration after oral administration; type: in vivo; settings: 100 mg orally, C57BL/6 mice, monitored 24 hours; FIG. 5
Experimental: After compound 1 (100 mg) was orally administered to C57BL/6 mice (n=3), its blood concentration was monitored for 24 hours.

CAG-OVA mice = assay: Scratch behavior measurement in CAG-OVA mice injected with activated CD4+ T cells from Dock8−/− OTII Tg mice; type: in vivo; settings: oral administration; FIG. 6
Experimental: Mice were put into an acrylic cage (11×14×20 cm) for at least 1 hour for acclimation, and their behaviors were videotaped. Playback of the video was used for determination of the total number of scratching bouts per 2 hours. When mice scratch, they stretch their hind paw toward the itchy spot, lean their head toward the hind paw, rapidly move the paw several times, and then lower it back to the floor. A series of these movements was counted as one bout of scratching.
To investigate whether compound 1 has an itch inhibitory action, mice expressing ovalbumin (OVA) under the control of the cytomegalovirus immediate early enhancer-chicken β-actin hybrid promoter (hereafter referred to as “CAG-OVA mice”) were used. Activated CD4^+ T cells (8.0×10^6 per mouse) from Dock8^−/− OTII Tg mice were stimulated with OVA323-339 (ISQAVHAAHAEINEAGR (SEQ ID NO: 2), 1 μg/ml) for 72 hours and intravenously injected into CAG-OVA mice, and the scratch behavior of the mice was measured 1 hour later. As a result, when the activated CD4^+ T cells were injected into CAG-OVA mice, scratch behavior was induced (see the results of the vehicle in FIG. 6).

[3] = system: VEGFA expression in human cancer cell line HT1080; assay: Hypoxia-induced VEGFA expression in HT1080; type: cell-based; settings: HT1080, 1% O2; FIG. 7
Experimental: (§4) Human sarcoma cell line HT1080 was provided by Y. Matsumoto (Kyushu University). For hypoxic induction, HT1080 (3×10^5 cells) was cultured in 1% O2 for 12 hours before assays.
as §2
(§5) (1) Although EPAS1 is known to control hypoxic responses through complex formation with aryl hydrocarbon receptor nuclear translocator (ARNT) (NPL 6), EPAS1-mediated Il31 promoter activation is independent of ARNT (NPL 4). FM19G11 is not a direct inhibitor of EPAS1, but is known to suppress the expression of the EPAS1 gene (Epas1) by acting on an unidentified target (NPL 7). Treatment of human cancer cell line HT1080 with […] suppressed VEGFA expression and GLUT1 expression induced by hypoxia (FIG. 7).

[4] = system: GLUT1 expression in human cancer cell line HT1080; assay: Hypoxia-induced GLUT1 expression in HT1080; type: cell-based; settings: HT1080, 1% O2; FIG. 7
Experimental: as §4, §2, §5

EPAS1 = biological target: T1, EPAS1 (Mus musculus, UniProt P97481); assay: Chromatin immunoprecipitation (ChIP) assay: recruitment of EPAS1 to the IL-31 gene promoter region in CD4+ T cells; type: cell-based; settings: antigen stimulation, 2.5 μM; FIG. 8
T1 construct: endogenous in cells; host or cells: CD4+ T cells from Dock8-/- AND Tg mice, stimulated with MCC88-103
Experimental: A ChIP assay was performed using activated mouse CD4^+ T cells and immortalized MEFs. Briefly, CD4^+ T cells from Dock8^−/− AND Tg mice were stimulated with MCC88-103 in the presence of a test compound (2.5 μM) or a vehicle alone (0.1% DMSO) for 24 hours. Immortalized MEFs were co-transfected with pcDNA-human EPAS1 (2 μg) in the presence of pGL4.10 IL31 (2 μg). Six hours after transfection, the MEFs were suspended in 10% FCS-containing DMEM that contains a test compound (10 μM) or a vehicle alone (0.1% DMSO) for another 24 hours.
The activated mouse CD4^+ cells and the transfected MEFs were treated with 0.5% formaldehyde at room temperature for 5 minutes and then neutralized with glycine at room temperature for 5 minutes. The resulting cells were washed twice with PBS containing a protease inhibitor, and then nuclei were isolated using a Magna ChIP™ HiSens kit (Millipore, Burlington, MS) according to the manufacturer's protocol. […] After centrifugation at 10,000 g at 4° C. for 10 minutes, the sheared chromatin DNA was obtained and treated with RNase and proteinase K for quantifying DNA content. […]
Magnetic beads preincubated with rabbit polyclonal IgG (ab171870; Abcam) were used for control studies. […] Eluted DNA and input chromatin DNA were analyzed with a CFX Connect™ thermal cycler (BIO-RAD) using SYBR Green PCR Master Mix (Thermo Fisher Scientific) and the following primers. […]

IL-31 = IL-31 production by SEB-stimulated human CD4+ T cells of AD patients (AlphaLISA); type: cell-based; settings: SEB stimulation; FIG. 9A
IL-2 = IL-2 production by SEB-stimulated human CD4+ T cells of AD patients (AlphaLISA); type: cell-based; settings: SEB stimulation; FIG. 9B
[5] = system: human IL-31 gene promoter; assay: Luciferase reporter assay of human IL-31 gene promoter in MEFs in the presence of human EPAS1; type: cell-based; settings: reporter construct (−1,308 to −1) in MEFs
[6] = Mus musculus, CD4+ T, 24 h, read-out: qPCR results (IL-31 production (%)): based on the case using 0.1% DMSO taken as 100%

T1 sequence (P97481 whole entry): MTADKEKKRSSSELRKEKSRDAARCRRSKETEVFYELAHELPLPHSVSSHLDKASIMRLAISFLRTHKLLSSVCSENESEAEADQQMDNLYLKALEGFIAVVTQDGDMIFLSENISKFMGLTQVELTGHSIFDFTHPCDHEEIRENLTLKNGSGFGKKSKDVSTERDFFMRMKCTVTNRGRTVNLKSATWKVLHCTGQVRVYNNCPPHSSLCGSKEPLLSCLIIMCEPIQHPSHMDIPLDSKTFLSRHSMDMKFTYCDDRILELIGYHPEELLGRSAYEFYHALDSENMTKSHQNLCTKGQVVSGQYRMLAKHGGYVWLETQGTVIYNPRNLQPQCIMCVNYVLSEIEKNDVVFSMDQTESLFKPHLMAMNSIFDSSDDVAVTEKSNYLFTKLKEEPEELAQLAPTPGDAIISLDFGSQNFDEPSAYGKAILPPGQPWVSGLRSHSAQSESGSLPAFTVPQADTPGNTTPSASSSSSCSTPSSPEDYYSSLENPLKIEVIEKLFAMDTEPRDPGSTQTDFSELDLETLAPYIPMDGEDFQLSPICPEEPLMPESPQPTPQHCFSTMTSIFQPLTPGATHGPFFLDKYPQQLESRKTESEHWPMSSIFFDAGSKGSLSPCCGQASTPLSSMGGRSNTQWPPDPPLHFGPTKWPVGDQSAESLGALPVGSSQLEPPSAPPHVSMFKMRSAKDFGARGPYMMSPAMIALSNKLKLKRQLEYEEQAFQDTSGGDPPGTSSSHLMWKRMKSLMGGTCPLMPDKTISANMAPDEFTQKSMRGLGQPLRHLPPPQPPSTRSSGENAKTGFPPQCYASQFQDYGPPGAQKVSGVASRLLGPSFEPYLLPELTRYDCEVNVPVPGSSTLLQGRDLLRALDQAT

SMILES: CC(C)c1ccc(/C=N/Nc2ccc(C(=O)O)cc2)cc1 [Compound 1, 4-(2-(4-Isopropylbenzylidene)hydrazinyl)benzoic Acid]
- antigen-induced IL-31 gene expression (in words) (mouse IL-31 gene): significantly inhibited
- activity at 0.078 µM (mouse IL-31 gene; [6]): 57.5%
- activity at 0.156 µM (mouse IL-31 gene; [6]): 40.1%
- activity at 0.312 µM (mouse IL-31 gene; [6]): 38.7%
- activity at 0.625 µM (mouse IL-31 gene; [6]): 23.9%
- activity at 1.25 µM (mouse IL-31 gene; [6]): 16.4%
- effect on non-specific T cell proliferation induced by PMA and ionomycin (CD4+ T cells): neither of these compounds had an adverse effect
- effect on non-specific T-cell proliferation response in vitro (CD4+ T cells; even when used at 50 μM): did not affect
- effect on expression of IL-2 gene (IL-2 gene (Il2)): neither of these compounds had an effect
- effect on expression of IL-4 gene (IL-4 gene (Il4)): neither of these compounds had an effect
- body weight gain versus non-treated group [1]: did not differ from the non-treated group
- histological or biochemical abnormalities [1]: no histological or biochemical abnormalities
- time after oral administration within which compound was eluted into the blood [2]: ≤ 12 h
- scratch behavior (number of scratching bouts during 2 hours) (CAG-OVA mice): significantly suppressed
- VEGFA expression induced by hypoxia [3]: did not show such an effect of suppressing expression
- GLUT1 expression induced by hypoxia [4]: did not show such an effect of suppressing expression
- recruitment of EPAS1 to the IL-31 gene promoter region (−1336 to −1042) (EPAS1): greatly reduced
- IL-31 production by CD4+ T cells of AD patients (IL-31): reduced IL-31 production in a dose-dependent manner
- IL-2 production by CD4+ T cells of AD patients (IL-2): not affected
- activation of the human IL-31 gene promoter [5]: significantly suppressed

SMILES: CC(C)c1ccc(C(=O)Nc2nnc(-c3ccc(C(=O)O)cc3)s2)cc1 [Compound 34, 4-(5-(4-Isopropylbenzamido)-1,3,4-thiadiazol-2-yl)benzoic Acid]
- activity at 0.625 µM (mouse IL-31 gene; Mus musculus, CD4+ T, 24 h, 0.625 μM, read-out: qPCR results (IL-31 production (%)): based on the case using 0.1% DMSO taken as 100%): 48.3%
- activity at 1.25 µM (mouse IL-31 gene; Mus musculus, CD4+ T, 24 h, 1.25 μM, read-out: qPCR results (IL-31 production (%)): based on the case using 0.1% DMSO taken as 100%): 52.3%
- activity at 10 µM (CD4+ T cells; Mus musculus, CD4+ T, 66 h, 10 μM, read-out: Cell proliferation (%): based on the case using 0.2% DMSO taken as 100%): 79%
- activity at 20 µM (CD4+ T cells; Mus musculus, CD4+ T, 66 h, 20 μM, read-out: Cell proliferation (%): based on the case using 0.2% DMSO taken as 100%): 90.8%
- activity at 40 µM (CD4+ T cells; Mus musculus, CD4+ T, 66 h, 40 μM, read-out: Cell proliferation (%): based on the case using 0.2% DMSO taken as 100%): 87.8%

SMILES: Cc1ccc(C(=O)COC(=O)c2cccc(NC(=O)c3ccc([N+](=O)[O-])cc3[N+](=O)[O-])c2)cc1 [FM419G11, reference compound]
- VEGFA expression induced by hypoxia [3]: suppressed
- GLUT1 expression induced by hypoxia [4]: suppressed

SMILES: CN(C)CCOc1ccc(/C=N/Nc2ccc(C(=O)O)cc2)cc1 [Negative control compound 1, 4-(2-(4-(2-(Dimethylamino)ethoxy)benzylidene)hydrazineyl)benzoic Acid, reference compound]
- antigen-induced IL-31 gene expression (in words) (mouse IL-31 gene): not inhibited
- IL-31 production inhibitory action (in words, discussion of Table 1) (mouse IL-31 gene; relative to compound 1): tended to notably decrease
- effect on non-specific T cell proliferation induced by PMA and ionomycin (CD4+ T cells): neither of these compounds had an adverse effect
- effect on expression of IL-2 gene (IL-2 gene (Il2)): neither of these compounds had an effect
- effect on expression of IL-4 gene (IL-4 gene (Il4)): neither of these compounds had an effect
